Experimental data: patent US9738634B2, “Heterocyclic amide compound and herbicide” (SYNGENTA PARTICIPATIONS AG, priority 2013, dated 2017)

Key:
Type in all cases: in vivo
[1] = tested on: barnyard grass; experiment: Test Example 3: weedkilling efficacy through soil treatment; F: barnyard grass; settings: soil treatment, treatment dosage 320 g/ha
Outline: (§1)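 Crop and weed responses were judged three weeks after a uniform surface spray of the water-diluted emulsion at the given g/ha rate. Seeds sat beneath about 1.5 cm of sterilized diluvial soil, and boxes stood in a greenhouse at 25 to 30° C.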

[2] = tested on: birds-eye speedwell; experiment: Test Example 3: weedkilling efficacy through soil treatment; p: birds-eye speedwell; settings: soil treatment, treatment dosage 320 g/ha
Outline: as §1

[3] = tested on: soybean; experiment: Test Example 3: soil treatment, effect on crop; d: soybean; settings: soil treatment, treatment dosage 320 g/ha
Outline: as §1

[4] = tested on: Indian mallow; experiment: Test Example 3: weedkilling efficacy through soil treatment; K: Indian mallow; settings: soil treatment, treatment dosage 320 g/ha
Outline: as §1

[5] = tested on: crabgrass; experiment: Test Example 3: weedkilling efficacy through soil treatment; D: crabgrass; settings: soil treatment, treatment dosage 320 g/ha
Outline: as §1

[6] = tested on: barnyard grass; experiment: Test Example 2: weedkilling efficacy, growth period weed treatment in the submerged state; A: barnyard grass; settings: treatment dosage 320 g/ha
Outline: (§2)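 Barnyard grass, bulrush and oval-leafed pondweed sown in alluvial soil under 4 cm flooding, greenhouse 25 to 30° C. At 1-2 leaf stage, water-diluted emulsion applied to the water surface at stated g/ha dosages; effects scored 3 weeks later.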

[7] = tested on: redroot pigweed; experiment: Test Example 3: weedkilling efficacy through soil treatment; L: redroot pigweed; settings: soil treatment, treatment dosage 320 g/ha
Outline: as §1

[8] = tested on: catchweed; experiment: Test Example 3: weedkilling efficacy through soil treatment; O: catchweed; settings: soil treatment, treatment dosage 320 g/ha
Outline: as §1

[9] = tested on: wild oat; experiment: Test Example 3: weedkilling efficacy through soil treatment; G: wild oat; settings: soil treatment, treatment dosage 320 g/ha
Outline: as §1

[10] = tested on: beet; experiment: Test Example 3: soil treatment, effect on crop; f: beet; settings: soil treatment, treatment dosage 320 g/ha
Outline: as §1

[11] = tested on: directly sown rice; experiment: Test Example 3: soil treatment, effect on crop; b: directly sown rice; settings: soil treatment, treatment dosage 320 g/ha
Outline: as §1

[12] = tested on: bulrush; experiment: Test Example 1: weedkilling efficacy, preemergent weed treatment in the submerged state; B: bulrush; settings: treatment dosage 320 g/ha
Outline: (§3)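 Visual scores against set criteria were taken 3 weeks after treatment. Compounds, as diluted emulsions at specified g/ha, went onto the water surface of 4 cm-flooded alluvial soil pots on the day weeds were sown and 2.5-leaf rice was transplanted; greenhouse held 25–30 °C.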

[13] = tested on: fig-leafed goosefoot; experiment: Test Example 3: weedkilling efficacy through soil treatment; M: fig-leafed goosefoot; settings: soil treatment, treatment dosage 320 g/ha
Outline: as §1

[14] = tested on: rapeseed; experiment: Test Example 3: soil treatment, effect on crop; g: rapeseed; settings: soil treatment, treatment dosage 320 g/ha
Outline: as §1

[15] = tested on: barnyard grass; experiment: Test Example 1: weedkilling efficacy, preemergent weed treatment in the submerged state; A: barnyard grass; settings: treatment dosage 320 g/ha
Outline: as §3

[16] = tested on: Italian ryegrass; experiment: Test Example 3: weedkilling efficacy through soil treatment; I: Italian ryegrass; settings: soil treatment, treatment dosage 320 g/ha
Outline: as §1

[17] = tested on: green foxtail; experiment: Test Example 3: weedkilling efficacy through soil treatment; E: green foxtail; settings: soil treatment, treatment dosage 320 g/ha
Outline: as §1

[18] = tested on: bulrush; experiment: Test Example 2: weedkilling efficacy, growth period weed treatment in the submerged state; B: bulrush; settings: treatment dosage 320 g/ha
Outline: as §2

[19] = tested on: transplanted rice; experiment: Test Example 1: preemergent weed treatment in the submerged state, effect on crop; a: transplanted rice; settings: treatment dosage 320 g/ha
Outline: as §3

[20] = tested on: common wind-grass; experiment: Test Example 3: weedkilling efficacy through soil treatment; J: common wind-grass; settings: soil treatment, treatment dosage 320 g/ha
Outline: as §1

[21] = tested on: corn; experiment: Test Example 3: soil treatment, effect on crop; c: corn; settings: soil treatment, treatment dosage 320 g/ha
Outline: as §1

[22] = tested on: chickweed; experiment: Test Example 3: weedkilling efficacy through soil treatment; N: chickweed; settings: soil treatment, treatment dosage 320 g/ha
Outline: as §1

[23] = tested on: oval-leafed pondweed; experiment: Test Example 1: weedkilling efficacy, preemergent weed treatment in the submerged state; C: oval-leafed pondweed; settings: treatment dosage 320 g/ha
Outline: as §3

[24] = tested on: oval-leafed pondweed; experiment: Test Example 2: weedkilling efficacy, growth period weed treatment in the submerged state; C: oval-leafed pondweed; settings: treatment dosage 320 g/ha
Outline: as §2

[25] = tested on: black-grass; experiment: Test Example 3: weedkilling efficacy through soil treatment; H: black-grass; settings: soil treatment, treatment dosage 320 g/ha
Outline: as §1

[26] = tested on: wheat; experiment: Test Example 3: soil treatment, effect on crop; e: wheat; settings: soil treatment, treatment dosage 320 g/ha
Outline: as §1

| Structure (SMILES) | F: barnyard grass, weedkilling efficacy grade [1] | P: birds-eye speedwell, weedkilling efficacy grade [2] | d: soybean, effect on crop grade [3] | K: Indian mallow, weedkilling efficacy grade [4] | D: crabgrass, weedkilling efficacy grade [5] | A (barnyard grass) weedkilling efficacy grade [6] | L: redroot pigweed, weedkilling efficacy grade [7] | O: catchweed, weedkilling efficacy grade [8] | G: wild oat, weedkilling efficacy grade [9] | f: beet, effect on crop grade [10] | b: directly sown rice, effect on crop grade [11] | B: bulrush, weed kill grade [12] | M: fig-leafed goosefoot, weedkilling efficacy grade [13] | g: rapeseed, effect on crop grade [14] | A: barnyard grass, weed kill grade [15] | I: Italian ryegrass, weedkilling efficacy grade [16] | E: green foxtail, weedkilling efficacy grade [17] | B (bulrush) weedkilling efficacy grade [18] | a: transplanted rice, effect on crop grade [19] | J: common wind-grass, weedkilling efficacy grade [20] | further results |
| --- | --- | --- | --- | --- | --- | --- | --- | --- | --- | --- | --- | --- | --- | --- | --- | --- | --- | --- | --- | --- | --- |
| CC(C)(C(=O)Nc1cc(C2CC2)cc(Cl)n1)N1COCN(c2ccccc2)C1=O [A-2-30] | 5 (weed kill ratio 90% or more, (practically complete withering)) | 4 (weed kill ratio 70% or more, less than 90%) | 0 (weed kill ratio 5% or less (practically no effect)) | 0 (weed kill ratio 5% or less (practically no effect)) | 5 (weed kill ratio 90% or more, (practically complete withering)) | 5 (weed kill ratio 90% or more, (practically complete withering)) | 0 (weed kill ratio 5% or less (practically no effect)) | 0 (weed kill ratio 5% or less (practically no effect)) | 4 (weed kill ratio 70% or more, less than 90%) | 3 (weed kill ratio 40% or more, less than 70%) | 3 (weed kill ratio 40% or more, less than 70%) | 5 (weed kill ratio 90% or more, (practically complete withering)) | 3 (weed kill ratio 40% or more, less than 70%) | 4 (weed kill ratio 70% or more, less than 90%) | 5 (weed kill ratio 90% or more, (practically complete withering)) | 5 (weed kill ratio 90% or more, (practically complete withering)) | 5 (weed kill ratio 90% or more, (practically complete withering)) | 5 (weed kill ratio 90% or more, (practically complete withering)) | 1 (weed kill ratio 5% or more, less than 20%) | 5 (weed kill ratio 90% or more, (practically complete withering)) | c: corn, effect on crop grade [21]: 0 (weed kill ratio 5% or less (practically no effect)); N: chickweed, weedkilling efficacy grade [22]: 3 (weed kill ratio 40% or more, less than 70%); C: oval-leafed pondweed, weed kill grade [23]: 5 (weed kill ratio 90% or more, (practically complete withering)); C (oval-leafed pondweed) weedkilling efficacy grade [24]: 5 (weed kill ratio 90% or more, (practically complete withering)); H: black-grass, weedkilling efficacy grade [25]: 5 (weed kill ratio 90% or more, (practically complete withering)); e: wheat, effect on crop grade [26]: 1 (weed kill ratio 5% or more, less than 20%) |
| CC(C)(C(=O)Nc1cc(Cl)cc(-c2ccccc2)n1)N1COCN(c2ccccc2)C1=O [A-2-31] | 2 (weed kill ratio 20% or more, less than 40%) | 3 (weed kill ratio 40% or more, less than 70%) | 0 (weed kill ratio 5% or less (practically no effect)) | 0 (weed kill ratio 5% or less (practically no effect)) | 2 (weed kill ratio 20% or more, less than 40%) | 5 (weed kill ratio 90% or more, (practically complete withering)) | 0 (weed kill ratio 5% or less (practically no effect)) | 3 (weed kill ratio 40% or more, less than 70%) | 2 (weed kill ratio 20% or more, less than 40%) | 0 (weed kill ratio 5% or less (practically no effect)) | 0 (weed kill ratio 5% or less (practically no effect)) | 5 (weed kill ratio 90% or more, (practically complete withering)) | 2 (weed kill ratio 20% or more, less than 40%) | 0 (weed kill ratio 5% or less (practically no effect)) | 5 (weed kill ratio 90% or more, (practically complete withering)) | 1 (weed kill ratio 5% or more, less than 20%) | 2 (weed kill ratio 20% or more, less than 40%) | 5 (weed kill ratio 90% or more, (practically complete withering)) | 0 (weed kill ratio 5% or less (practically no effect)) | 4 (weed kill ratio 70% or more, less than 90%) | c: corn, effect on crop grade [21]: 0 (weed kill ratio 5% or less (practically no effect)); N: chickweed, weedkilling efficacy grade [22]: 3 (weed kill ratio 40% or more, less than 70%); C: oval-leafed pondweed, weed kill grade [23]: 5 (weed kill ratio 90% or more, (practically complete withering)); C (oval-leafed pondweed) weedkilling efficacy grade [24]: 4 (weed kill ratio 70% or more, less than 90%); H: black-grass, weedkilling efficacy grade [25]: 3 (weed kill ratio 40% or more, less than 70%); e: wheat, effect on crop grade [26]: 0 (weed kill ratio 5% or less (practically no effect)) |
| COc1cc(Cl)cc(NC(=O)C(C)(C)N2COCN(c3ccccc3)C2=O)n1 [A-2-32] | 5 (weed kill ratio 90% or more, (practically complete withering)) | 5 (weed kill ratio 90% or more, (practically complete withering)) | 0 (weed kill ratio 5% or less (practically no effect)) | 0 (weed kill ratio 5% or less (practically no effect)) | 5 (weed kill ratio 90% or more, (practically complete withering)) | 5 (weed kill ratio 90% or more, (practically complete withering)) | 3 (weed kill ratio 40% or more, less than 70%) | 5 (weed kill ratio 90% or more, (practically complete withering)) | 5 (weed kill ratio 90% or more, (practically complete withering)) | 4 (weed kill ratio 70% or more, less than 90%) | 2 (weed kill ratio 20% or more, less than 40%) | 5 (weed kill ratio 90% or more, (practically complete withering)) | 5 (weed kill ratio 90% or more, (practically complete withering)) | 4 (weed kill ratio 70% or more, less than 90%) | 5 (weed kill ratio 90% or more, (practically complete withering)) | 5 (weed kill ratio 90% or more, (practically complete withering)) | 5 (weed kill ratio 90% or more, (practically complete withering)) | 5 (weed kill ratio 90% or more, (practically complete withering)) | 4 (weed kill ratio 70% or more, less than 90%) | 5 (weed kill ratio 90% or more, (practically complete withering)) | c: corn, effect on crop grade [21]: 1 (weed kill ratio 5% or more, less than 20%); N: chickweed, weedkilling efficacy grade [22]: 4 (weed kill ratio 70% or more, less than 90%); C: oval-leafed pondweed, weed kill grade [23]: 5 (weed kill ratio 90% or more, (practically complete withering)); C (oval-leafed pondweed) weedkilling efficacy grade [24]: 5 (weed kill ratio 90% or more, (practically complete withering)); H: black-grass, weedkilling efficacy grade [25]: 5 (weed kill ratio 90% or more, (practically complete withering)); e: wheat, effect on crop grade [26]: 0 (weed kill ratio 5% or less (practically no effect)) |
